The source of these data is patent US20080213410A1, “ANTI-HUMAN PAPILLOMAS VIRUS TOPICAL COMPOSITION” (priority 2007, published 2008).

This assay relates to human papillomavirus (HPV) genital warts. Put plainly: 15 months treatment of 90 infected patients, number of recurrent warts (Example 1). The format is in vivo. From the text: The composition, to be applied topically or transdermally to the skin and mucous membranes, is of high interest because it triggers little or no side-effects, very little irritation, no restrictive length of application, no impact on non-infected skin, can heal surface and/or deep flesh warts and prevent the recurrence of outbreaks. The treatment consists in topically administering the composition to the HPV infected skin and mucous membranes of patients. Such physiological regions consists of, in particular, the skin of the penis, vulva (area outside the vagina), anus, scrotum, groin, or thigh and in the linings of the vagina, cervix, or rectum presenting the virus related warts. […] Two types of warts can be found in patients: acute or chronic warts. The first kind, the acute wart, can be treated by simply swiping the surface of the skin or mucous membrane with a swab, previously impregnated with the composition, and gently rubbing the skin in order to allow penetration of the composition in its deepest layers. The second kind is the chronic wart, which requires a more invasive type of treatment. Indeed, the treatment is either effected by applying to the skin or mucous surface to treat a transdermal patch, constantly and regularly diffusing the composition through the area it covers, or by using a microlet, which uses a needle rapidly piercing the skin and injecting the composition deeply in the flesh.
Posology: Application of the topical composition is effected 1 time per week through swiping of the region with a swab containing the composition in the case of an acute wart or through the use of a transdermal patch or microlet in the case of a chronic wart.
Results: Table 1 comprises the results of a 15 months treatment with the composition of the present invention on a total of 90 infected patients. Table 2 comprises the results of a 15 months treatment with liquid nitrogen on a total of 90 infected patients. The compiled data consists of the number of recurrent warts that had still developed after a 15 months treatment with either the cream of the present invention or with liquid nitrogen. These records represent direct evidence that the composition of the present invention is effective, the number of warts that had still reappeared after a 15 months long treatment of the intermittent lesion and inflammation being less important with the cream than with the liquid nitrogen. Indeed, 67% of patients treated with the composition of the present invention presented a low degree of infections after the 15 months treatment (1 to 2 recurrent warts) whereas only 13% of the patients treated with the liquid nitrogen presented similar results.

On to `N#N` [liquid nitrogen], for which, where the note is “90 patients per treatment”, the “patients presenting a low degree of infections after the 15 months treatment (1 to 2 recurrent warts)” value is recorded as 13%. Besides, the “Number of patients with 1 to 2 recurrent warts after a 15 months treatment” value (90 patients, 1 to 2 warts) amounted to 12. Further, the “Number of patients with 3 to 5 recurrent warts after a 15 months treatment” value (90 patients, 3 to 5 warts) worked out at 49. Besides, for the setting “90 patients, 6 to 10 warts”, the “Number of patients with 6 to 10 recurrent warts after a 15 months treatment” value is 29.
